# Values quoted from earlier work as cited in patent US20070037740A1, “Combination therapy with glatiramer acetate and alphacalcidol for the treatment of multiple sclerosis” (priority 2003, published 2007).
# Assays:
# [1] = system: multiple sclerosis
# [2] = system: murine experimental autoimmune encephalomyelitis (EAE)
# [3] = daily subcutaneous injections, 20 mg/injection
Compound,"appearance of ""black holes"" [1, 3]","appearance of new lesions by magnetic resonance imaging (MRI) [1, 3]","progression of disability [1, 3]","relapse rates [1, 3]",effective in treating multiple sclerosis (MS) ([1]; in vivo),progression of murine EAE ([2]; administered after the induction of EAE),"development of murine EAE ([2]; mouse, in vivo)"
"L-glutamic acid polymer with L-alanine, L-lysine and L-tyrosine, acetate (salt) [glatiramer acetate]",reduce,reduce,reduce,reduce,effective,,
"C=C1/C(=C\C=C2/CCC[C@]3(C)[C@@H]([C@H](C)CCCC(C)(C)O)CC[C@@H]23)C[C@@H](O)C[C@@H]1O [1α,25-dihydroxycholecalciferol]",,,,,,prevents the progression,prevents the development
